{
  "source": "the NIST ThermoML archive (doi:10.1021/acs.jced.5b00838)",
  "test": "excess molar enthalpy (molar enthalpy of mixing); xn = mol fraction of the nth substance listed",
  "conditions": "100 kPa, Liquid, isothermal titration calorimetry",
  "note": "± gives the expanded uncertainty stated by the source.",
  "data": [
    {"smiles": "CCCCCCOCC", "note": "[1-ethoxyhexane] + CC#N", "values": [
      {"measurement": "excess molar enthalpy", "setting": "298.15 K, x2 = 0.0307", "value": "0.028 ± 0.000526", "unit": "kcal/mol"},
      {"measurement": "excess molar enthalpy", "setting": "298.15 K, x2 = 0.0596", "value": "0.0608 ± 0.000884", "unit": "kcal/mol"},
      {"measurement": "excess molar enthalpy", "setting": "298.15 K, x2 = 0.0868", "value": "0.0887 ± 0.00122", "unit": "kcal/mol"},
      {"measurement": "excess molar enthalpy", "setting": "298.15 K, x2 = 0.1125", "value": "0.112 ± 0.00148", "unit": "kcal/mol"},
      {"measurement": "excess molar enthalpy", "setting": "298.15 K, x2 = 0.1368", "value": "0.132 ± 0.00174", "unit": "kcal/mol"},
      {"measurement": "excess molar enthalpy", "setting": "298.15 K, x2 = 0.1816", "value": "0.166 ± 0.00213", "unit": "kcal/mol"},
      {"measurement": "excess molar enthalpy", "setting": "298.15 K, x2 = 0.222", "value": "0.192 ± 0.00239", "unit": "kcal/mol"},
      {"measurement": "excess molar enthalpy", "setting": "298.15 K, x2 = 0.2586", "value": "0.212 ± 0.00263", "unit": "kcal/mol"},
      {"measurement": "excess molar enthalpy", "setting": "298.15 K, x2 = 0.2919", "value": "0.228 ± 0.00287", "unit": "kcal/mol"},
      {"measurement": "excess molar enthalpy", "setting": "298.15 K, x2 = 0.3223", "value": "0.241 ± 0.00311", "unit": "kcal/mol"},
      {"measurement": "excess molar enthalpy", "setting": "298.15 K, x2 = 0.3759", "value": "0.26 ± 0.00335", "unit": "kcal/mol"},
      {"measurement": "excess molar enthalpy", "setting": "298.15 K, x2 = 0.4217", "value": "0.271 ± 0.00335", "unit": "kcal/mol"},
      {"measurement": "excess molar enthalpy", "setting": "298.15 K, x2 = 0.4612", "value": "0.278 ± 0.00359", "unit": "kcal/mol"},
      {"measurement": "excess molar enthalpy", "setting": "298.15 K, x2 = 0.5038", "value": "0.282 ± 0.00359", "unit": "kcal/mol"},
      {"measurement": "excess molar enthalpy", "setting": "298.15 K, x2 = 0.5401", "value": "0.283 ± 0.00359", "unit": "kcal/mol"},
      {"measurement": "excess molar enthalpy", "setting": "298.15 K, x2 = 0.5715", "value": "0.282 ± 0.00359", "unit": "kcal/mol"},
      {"measurement": "excess molar enthalpy", "setting": "298.15 K, x2 = 0.5988", "value": "0.279 ± 0.00359", "unit": "kcal/mol"},
      {"measurement": "excess molar enthalpy", "setting": "298.15 K, x2 = 0.6274", "value": "0.275 ± 0.00359", "unit": "kcal/mol"},
      {"measurement": "excess molar enthalpy", "setting": "298.15 K, x2 = 0.6521", "value": "0.27 ± 0.00335", "unit": "kcal/mol"},
      {"measurement": "excess molar enthalpy", "setting": "298.15 K, x2 = 0.6738", "value": "0.265 ± 0.00335", "unit": "kcal/mol"},
      {"measurement": "excess molar enthalpy", "setting": "298.15 K, x2 = 0.6959", "value": "0.258 ± 0.00335", "unit": "kcal/mol"},
      {"measurement": "excess molar enthalpy", "setting": "298.15 K, x2 = 0.7006", "value": "0.255 ± 0.00311", "unit": "kcal/mol"},
      {"measurement": "excess molar enthalpy", "setting": "298.15 K, x2 = 0.7152", "value": "0.251 ± 0.00311", "unit": "kcal/mol"},
      {"measurement": "excess molar enthalpy", "setting": "298.15 K, x2 = 0.7222", "value": "0.247 ± 0.00311", "unit": "kcal/mol"},
      {"measurement": "excess molar enthalpy", "setting": "298.15 K, x2 = 0.7322", "value": "0.245 ± 0.00311", "unit": "kcal/mol"},
      {"measurement": "excess molar enthalpy", "setting": "298.15 K, x2 = 0.7452", "value": "0.238 ± 0.00311", "unit": "kcal/mol"},
      {"measurement": "excess molar enthalpy", "setting": "298.15 K, x2 = 0.7473", "value": "0.239 ± 0.00311", "unit": "kcal/mol"},
      {"measurement": "excess molar enthalpy", "setting": "298.15 K, x2 = 0.7608", "value": "0.232 ± 0.00287", "unit": "kcal/mol"},
      {"measurement": "excess molar enthalpy", "setting": "298.15 K, x2 = 0.7698", "value": "0.226 ± 0.00287", "unit": "kcal/mol"},
      {"measurement": "excess molar enthalpy", "setting": "298.15 K, x2 = 0.796", "value": "0.212 ± 0.00263", "unit": "kcal/mol"},
      {"measurement": "excess molar enthalpy", "setting": "298.15 K, x2 = 0.8241", "value": "0.194 ± 0.00239", "unit": "kcal/mol"},
      {"measurement": "excess molar enthalpy", "setting": "298.15 K, x2 = 0.8419", "value": "0.182 ± 0.00234", "unit": "kcal/mol"},
      {"measurement": "excess molar enthalpy", "setting": "298.15 K, x2 = 0.8604", "value": "0.167 ± 0.00215", "unit": "kcal/mol"},
      {"measurement": "excess molar enthalpy", "setting": "298.15 K, x2 = 0.8799", "value": "0.151 ± 0.00196", "unit": "kcal/mol"},
      {"measurement": "excess molar enthalpy", "setting": "298.15 K, x2 = 0.9002", "value": "0.131 ± 0.00172", "unit": "kcal/mol"},
      {"measurement": "excess molar enthalpy", "setting": "298.15 K, x2 = 0.9215", "value": "0.108 ± 0.00146", "unit": "kcal/mol"},
      {"measurement": "excess molar enthalpy", "setting": "298.15 K, x2 = 0.9362", "value": "0.091 ± 0.00124", "unit": "kcal/mol"},
      {"measurement": "excess molar enthalpy", "setting": "298.15 K, x2 = 0.9514", "value": "0.0718 ± 0.00103", "unit": "kcal/mol"},
      {"measurement": "excess molar enthalpy", "setting": "298.15 K, x2 = 0.967", "value": "0.0504 ± 0.000789", "unit": "kcal/mol"},
      {"measurement": "excess molar enthalpy", "setting": "298.15 K, x2 = 0.9832", "value": "0.0264 ± 0.000526", "unit": "kcal/mol"},
      {"measurement": "excess molar enthalpy", "setting": "308.15 K, x2 = 0.0303", "value": "0.0333 ± 0.000574", "unit": "kcal/mol"},
      {"measurement": "excess molar enthalpy", "setting": "308.15 K, x2 = 0.0588", "value": "0.0672 ± 0.000956", "unit": "kcal/mol"},
      {"measurement": "excess molar enthalpy", "setting": "308.15 K, x2 = 0.0857", "value": "0.0959 ± 0.00129", "unit": "kcal/mol"},
      {"measurement": "excess molar enthalpy", "setting": "308.15 K, x2 = 0.1111", "value": "0.121 ± 0.0016", "unit": "kcal/mol"},
      {"measurement": "excess molar enthalpy", "setting": "308.15 K, x2 = 0.1352", "value": "0.142 ± 0.00184", "unit": "kcal/mol"},
      {"measurement": "excess molar enthalpy", "setting": "308.15 K, x2 = 0.1795", "value": "0.177 ± 0.00227", "unit": "kcal/mol"},
      {"measurement": "excess molar enthalpy", "setting": "308.15 K, x2 = 0.2196", "value": "0.204 ± 0.00263", "unit": "kcal/mol"},
      {"measurement": "excess molar enthalpy", "setting": "308.15 K, x2 = 0.2559", "value": "0.226 ± 0.00287", "unit": "kcal/mol"},
      {"measurement": "excess molar enthalpy", "setting": "308.15 K, x2 = 0.2889", "value": "0.242 ± 0.00311", "unit": "kcal/mol"},
      {"measurement": "excess molar enthalpy", "setting": "308.15 K, x2 = 0.3192", "value": "0.256 ± 0.00335", "unit": "kcal/mol"},
      {"measurement": "excess molar enthalpy", "setting": "308.15 K, x2 = 0.3726", "value": "0.275 ± 0.00359", "unit": "kcal/mol"},
      {"measurement": "excess molar enthalpy", "setting": "308.15 K, x2 = 0.4182", "value": "0.287 ± 0.00359", "unit": "kcal/mol"},
      {"measurement": "excess molar enthalpy", "setting": "308.15 K, x2 = 0.4577", "value": "0.294 ± 0.00359", "unit": "kcal/mol"},
      {"measurement": "excess molar enthalpy", "setting": "308.15 K, x2 = 0.5002", "value": "0.298 ± 0.00382", "unit": "kcal/mol"},
      {"measurement": "excess molar enthalpy", "setting": "308.15 K, x2 = 0.5366", "value": "0.299 ± 0.00382", "unit": "kcal/mol"},
      {"measurement": "excess molar enthalpy", "setting": "308.15 K, x2 = 0.568", "value": "0.297 ± 0.00382", "unit": "kcal/mol"},
      {"measurement": "excess molar enthalpy", "setting": "308.15 K, x2 = 0.5954", "value": "0.294 ± 0.00382", "unit": "kcal/mol"},
      {"measurement": "excess molar enthalpy", "setting": "308.15 K, x2 = 0.6241", "value": "0.29 ± 0.00359", "unit": "kcal/mol"},
      {"measurement": "excess molar enthalpy", "setting": "308.15 K, x2 = 0.6489", "value": "0.285 ± 0.00359", "unit": "kcal/mol"},
      {"measurement": "excess molar enthalpy", "setting": "308.15 K, x2 = 0.6707", "value": "0.279 ± 0.00359", "unit": "kcal/mol"},
      {"measurement": "excess molar enthalpy", "setting": "308.15 K, x2 = 0.6929", "value": "0.272 ± 0.00335", "unit": "kcal/mol"},
      {"measurement": "excess molar enthalpy", "setting": "308.15 K, x2 = 0.7087", "value": "0.264 ± 0.00335", "unit": "kcal/mol"},
      {"measurement": "excess molar enthalpy", "setting": "308.15 K, x2 = 0.7123", "value": "0.265 ± 0.00335", "unit": "kcal/mol"},
      {"measurement": "excess molar enthalpy", "setting": "308.15 K, x2 = 0.7294", "value": "0.258 ± 0.00335", "unit": "kcal/mol"},
      {"measurement": "excess molar enthalpy", "setting": "308.15 K, x2 = 0.73", "value": "0.256 ± 0.00335", "unit": "kcal/mol"},
      {"measurement": "excess molar enthalpy", "setting": "308.15 K, x2 = 0.7446", "value": "0.251 ± 0.00311", "unit": "kcal/mol"},
      {"measurement": "excess molar enthalpy", "setting": "308.15 K, x2 = 0.7526", "value": "0.246 ± 0.00311", "unit": "kcal/mol"},
      {"measurement": "excess molar enthalpy", "setting": "308.15 K, x2 = 0.7582", "value": "0.245 ± 0.00311", "unit": "kcal/mol"},
      {"measurement": "excess molar enthalpy", "setting": "308.15 K, x2 = 0.7767", "value": "0.233 ± 0.00287", "unit": "kcal/mol"},
      {"measurement": "excess molar enthalpy", "setting": "308.15 K, x2 = 0.8023", "value": "0.217 ± 0.00287", "unit": "kcal/mol"},
      {"measurement": "excess molar enthalpy", "setting": "308.15 K, x2 = 0.8297", "value": "0.198 ± 0.00263", "unit": "kcal/mol"},
      {"measurement": "excess molar enthalpy", "setting": "308.15 K, x2 = 0.847", "value": "0.185 ± 0.00237", "unit": "kcal/mol"},
      {"measurement": "excess molar enthalpy", "setting": "308.15 K, x2 = 0.8651", "value": "0.17 ± 0.0022", "unit": "kcal/mol"},
      {"measurement": "excess molar enthalpy", "setting": "308.15 K, x2 = 0.884", "value": "0.152 ± 0.00198", "unit": "kcal/mol"},
      {"measurement": "excess molar enthalpy", "setting": "308.15 K, x2 = 0.9037", "value": "0.132 ± 0.00172", "unit": "kcal/mol"},
      {"measurement": "excess molar enthalpy", "setting": "308.15 K, x2 = 0.9243", "value": "0.108 ± 0.00146", "unit": "kcal/mol"},
      {"measurement": "excess molar enthalpy", "setting": "308.15 K, x2 = 0.9385", "value": "0.0909 ± 0.00124", "unit": "kcal/mol"},
      {"measurement": "excess molar enthalpy", "setting": "308.15 K, x2 = 0.9531", "value": "0.0718 ± 0.00103", "unit": "kcal/mol"},
      {"measurement": "excess molar enthalpy", "setting": "308.15 K, x2 = 0.9683", "value": "0.0503 ± 0.000789", "unit": "kcal/mol"},
      {"measurement": "excess molar enthalpy", "setting": "308.15 K, x2 = 0.9839", "value": "0.0263 ± 0.000526", "unit": "kcal/mol"}
    ]}
  ]
}
